Experimental data reported in PubChem BioAssay (NCI).
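Tested at 5 concentrations; 48 h exposure; 96-well plates; endpoints linearly interpolated, else capped at highest concentration. GI50 marks 50% less growth. TGI is the concentration that stops growth completely.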

Legend:
Test in all cases: NCI anticancer screen, dose series, 48 h
NCI-H226 lung = test system: NCI-H226 lung
NCI-H460 lung = test system: NCI-H460 lung
SNB-75 CNS = test system: SNB-75 CNS
SK-MEL-2 melanoma = test system: SK-MEL-2 melanoma
SNB-19 CNS = test system: SNB-19 CNS
COLO 205 colon = test system: COLO 205 colon
HOP-62 NSCLC = test system: HOP-62 NSCLC
K-562 leukemia = test system: K-562 leukemia
HT29 colon = test system: HT29 colon
HOP-92 NSCLC = test system: HOP-92 NSCLC
HCC-2998 colon = test system: HCC-2998 colon
ACHN renal = test system: ACHN renal
A549 NSCLC = test system: A549 NSCLC
OVCAR-5 ovarian = test system: OVCAR-5 ovarian
MDA-MB-435 = test system: MDA-MB-435
SK-MEL-5 melanoma = test system: SK-MEL-5 melanoma
HCT-116 colon = test system: HCT-116 colon
HCT-15 colon = test system: HCT-15 colon
BT-549 breast = test system: BT-549 breast
SF-539 CNS = test system: SF-539 CNS
DU-145 prostate = test system: DU-145 prostate
SK-OV-3 ovarian = test system: SK-OV-3 ovarian
IGROV1 ovarian = test system: IGROV1 ovarian
EKVX NSCLC = test system: EKVX NSCLC
786-0 renal = test system: 786-0 renal
UACC-62 melanoma = test system: UACC-62 melanoma
M14 melanoma = test system: M14 melanoma
MOLT-4 leukemia = test system: MOLT-4 leukemia
SN12C renal = test system: SN12C renal
RXF 393 renal = test system: RXF 393 renal
OVCAR-8 ovarian = test system: OVCAR-8 ovarian
T-47D breast = test system: T-47D breast
MCF7 breast = test system: MCF7 breast
UO-31 renal = test system: UO-31 renal
RPMI-8226 leukemia = test system: RPMI-8226 leukemia
PC-3 prostate = test system: PC-3 prostate
SK-MEL-28 melanoma = test system: SK-MEL-28 melanoma
NCI-H522 lung = test system: NCI-H522 lung
NCI/ADR-RES ovarian = test system: NCI/ADR-RES ovarian
SF-295 CNS = test system: SF-295 CNS
U251 CNS = test system: U251 CNS
OVCAR-4 ovarian = test system: OVCAR-4 ovarian
HS 578T breast = test system: HS 578T breast
TK-10 renal = test system: TK-10 renal
MALME-3M melanoma = test system: MALME-3M melanoma
UACC-257 melanoma = test system: UACC-257 melanoma
NCI-H23 lung = test system: NCI-H23 lung
SF-268 CNS = test system: SF-268 CNS
CAKI-1 renal = test system: CAKI-1 renal
MDA-MB-231 breast = test system: MDA-MB-231 breast
SW-620 colon = test system: SW-620 colon
KM12 colon = test system: KM12 colon
SR leukemia = test system: SR leukemia
OVCAR-3 ovarian = test system: OVCAR-3 ovarian
LOX IMVI melanoma = test system: LOX IMVI melanoma
A498 renal = test system: A498 renal
HL-60(TB) leukemia = test system: HL-60(TB) leukemia
CCRF-CEM leukemia = test system: CCRF-CEM leukemia

CC(=O)c1ccc(Nc2cc(-n3ccnc3)nc3ccccc23)cc1
GI50 (NCI-H226 lung): 24.4 µM
TGI (NCI-H226 lung): 92.1 µM
GI50 (NCI-H460 lung): 34.2 µM
TGI (NCI-H460 lung): > 100 µM
GI50 (SNB-75 CNS): 38.2 µM
TGI (SNB-75 CNS): > 100 µM
GI50 (SK-MEL-2 melanoma): > 100 µM
TGI (SK-MEL-2 melanoma): > 100 µM
GI50 (SNB-19 CNS): > 100 µM
TGI (SNB-19 CNS): > 100 µM
GI50 (COLO 205 colon): > 100 µM
TGI (COLO 205 colon): > 100 µM
GI50 (HOP-62 NSCLC): 4.26 µM
TGI (HOP-62 NSCLC): 29.4 µM
GI50 (K-562 leukemia): 11.4 µM
TGI (K-562 leukemia): 81.5 µM
GI50 (HT29 colon): 60.7 µM
TGI (HT29 colon): > 100 µM
GI50 (HOP-92 NSCLC): 4.15 µM
TGI (HOP-92 NSCLC): 29.4 µM
GI50 (HCC-2998 colon): > 100 µM
TGI (HCC-2998 colon): > 100 µM
GI50 (ACHN renal): 48.4 µM
TGI (ACHN renal): > 100 µM
GI50 (A549 NSCLC): 35.3 µM
TGI (A549 NSCLC): > 100 µM
GI50 (OVCAR-5 ovarian): > 100 µM
TGI (OVCAR-5 ovarian): > 100 µM
GI50 (MDA-MB-435): 13.5 µM
TGI (MDA-MB-435): 60.1 µM
GI50 (SK-MEL-5 melanoma): 15.6 µM
TGI (SK-MEL-5 melanoma): 53 µM
GI50 (HCT-116 colon): 30.5 µM
TGI (HCT-116 colon): > 100 µM
GI50 (HCT-15 colon): 34.2 µM
TGI (HCT-15 colon): > 100 µM
GI50 (BT-549 breast): > 100 µM
TGI (BT-549 breast): > 100 µM
GI50 (SF-539 CNS): 40.6 µM
TGI (SF-539 CNS): 88.7 µM
GI50 (DU-145 prostate): > 100 µM
TGI (DU-145 prostate): > 100 µM
GI50 (SK-OV-3 ovarian): > 100 µM
TGI (SK-OV-3 ovarian): > 100 µM
GI50 (IGROV1 ovarian): > 100 µM
TGI (IGROV1 ovarian): > 100 µM
GI50 (EKVX NSCLC): > 100 µM
TGI (EKVX NSCLC): > 100 µM
GI50 (786-0 renal): 7.86 µM
TGI (786-0 renal): 41.3 µM
GI50 (UACC-62 melanoma): 19.2 µM
TGI (UACC-62 melanoma): 92.8 µM
GI50 (M14 melanoma): 8.15 µM
TGI (M14 melanoma): 52 µM
GI50 (MOLT-4 leukemia): 10.7 µM
TGI (MOLT-4 leukemia): 58.1 µM
GI50 (SN12C renal): 45.8 µM
TGI (SN12C renal): > 100 µM
GI50 (RXF 393 renal): 26 µM
TGI (RXF 393 renal): 76.8 µM
GI50 (OVCAR-8 ovarian): 50.5 µM
TGI (OVCAR-8 ovarian): > 100 µM
GI50 (T-47D breast): > 100 µM
TGI (T-47D breast): > 100 µM
GI50 (MCF7 breast): 36 µM
TGI (MCF7 breast): > 100 µM
GI50 (UO-31 renal): 66.7 µM
TGI (UO-31 renal): > 100 µM
GI50 (RPMI-8226 leukemia): 3.24 µM
TGI (RPMI-8226 leukemia): 9.84 µM
GI50 (PC-3 prostate): 20.5 µM
TGI (PC-3 prostate): > 100 µM
GI50 (SK-MEL-28 melanoma): 29.8 µM
TGI (SK-MEL-28 melanoma): > 100 µM
GI50 (NCI-H522 lung): 87.9 µM
TGI (NCI-H522 lung): > 100 µM
GI50 (NCI/ADR-RES ovarian): > 100 µM
TGI (NCI/ADR-RES ovarian): > 100 µM
GI50 (SF-295 CNS): 2.8 µM
TGI (SF-295 CNS): 9.53 µM
GI50 (U251 CNS): 32.6 µM
TGI (U251 CNS): > 100 µM
GI50 (OVCAR-4 ovarian): > 100 µM
TGI (OVCAR-4 ovarian): > 100 µM
GI50 (HS 578T breast): 33.4 µM
TGI (HS 578T breast): > 100 µM
GI50 (TK-10 renal): 15.6 µM
TGI (TK-10 renal): 63 µM
GI50 (MALME-3M melanoma): 15.4 µM
TGI (MALME-3M melanoma): 56.5 µM
GI50 (UACC-257 melanoma): 33.4 µM
TGI (UACC-257 melanoma): > 100 µM
GI50 (NCI-H23 lung): 49.6 µM
TGI (NCI-H23 lung): > 100 µM
GI50 (SF-268 CNS): 14.8 µM
TGI (SF-268 CNS): 67.7 µM
GI50 (CAKI-1 renal): 1.71 µM
TGI (CAKI-1 renal): 7.57 µM
GI50 (MDA-MB-231 breast): 3.64 µM
TGI (MDA-MB-231 breast): 18.1 µM
GI50 (SW-620 colon): 49.1 µM
TGI (SW-620 colon): > 100 µM

S=C(NNC1=NCCCN1)Nc1ccccc1
TGI (KM12 colon): > 100 µM
TGI (SR leukemia): > 100 µM
TGI (NCI-H226 lung): > 100 µM
TGI (NCI-H460 lung): > 100 µM
TGI (SNB-75 CNS): > 100 µM
TGI (SK-MEL-2 melanoma): > 100 µM
TGI (SNB-19 CNS): > 100 µM
TGI (COLO 205 colon): > 100 µM
TGI (HOP-62 NSCLC): > 100 µM
TGI (OVCAR-3 ovarian): > 100 µM
TGI (K-562 leukemia): > 100 µM
TGI (HT29 colon): > 100 µM
TGI (HOP-92 NSCLC): > 100 µM
TGI (HCC-2998 colon): > 100 µM
TGI (LOX IMVI melanoma): > 100 µM
TGI (ACHN renal): > 100 µM
TGI (A549 NSCLC): > 100 µM
TGI (OVCAR-5 ovarian): > 100 µM
TGI (MDA-MB-435): > 100 µM
TGI (SK-MEL-5 melanoma): > 100 µM
TGI (HCT-116 colon): > 100 µM
TGI (A498 renal): > 100 µM
TGI (HCT-15 colon): > 100 µM
TGI (BT-549 breast): > 100 µM
TGI (SF-539 CNS): > 100 µM
TGI (HL-60(TB) leukemia): > 100 µM
TGI (SK-OV-3 ovarian): > 100 µM
TGI (IGROV1 ovarian): > 100 µM
TGI (EKVX NSCLC): > 100 µM
TGI (786-0 renal): > 100 µM
TGI (UACC-62 melanoma): > 100 µM
TGI (MOLT-4 leukemia): > 100 µM
TGI (RXF 393 renal): > 100 µM
TGI (OVCAR-8 ovarian): > 100 µM
TGI (T-47D breast): > 100 µM
TGI (MCF7 breast): > 100 µM
TGI (UO-31 renal): > 100 µM
TGI (RPMI-8226 leukemia): 79 µM
TGI (PC-3 prostate): > 100 µM
TGI (SK-MEL-28 melanoma): > 100 µM
TGI (NCI-H522 lung): > 100 µM
TGI (NCI/ADR-RES ovarian): > 100 µM
TGI (SF-295 CNS): > 100 µM
TGI (CCRF-CEM leukemia): > 100 µM
TGI (U251 CNS): > 100 µM
TGI (OVCAR-4 ovarian): > 100 µM
TGI (HS 578T breast): > 100 µM
TGI (TK-10 renal): > 100 µM
TGI (MALME-3M melanoma): > 100 µM
TGI (UACC-257 melanoma): > 100 µM
TGI (NCI-H23 lung): > 100 µM
TGI (SF-268 CNS): > 100 µM
TGI (CAKI-1 renal): > 100 µM
TGI (SW-620 colon): > 100 µM
